Some results are limits rather than exact numbers.

The assay concerns the target T1, AHR (Homo sapiens, UniProt P35869).
T1 sequence (P35869 11-848): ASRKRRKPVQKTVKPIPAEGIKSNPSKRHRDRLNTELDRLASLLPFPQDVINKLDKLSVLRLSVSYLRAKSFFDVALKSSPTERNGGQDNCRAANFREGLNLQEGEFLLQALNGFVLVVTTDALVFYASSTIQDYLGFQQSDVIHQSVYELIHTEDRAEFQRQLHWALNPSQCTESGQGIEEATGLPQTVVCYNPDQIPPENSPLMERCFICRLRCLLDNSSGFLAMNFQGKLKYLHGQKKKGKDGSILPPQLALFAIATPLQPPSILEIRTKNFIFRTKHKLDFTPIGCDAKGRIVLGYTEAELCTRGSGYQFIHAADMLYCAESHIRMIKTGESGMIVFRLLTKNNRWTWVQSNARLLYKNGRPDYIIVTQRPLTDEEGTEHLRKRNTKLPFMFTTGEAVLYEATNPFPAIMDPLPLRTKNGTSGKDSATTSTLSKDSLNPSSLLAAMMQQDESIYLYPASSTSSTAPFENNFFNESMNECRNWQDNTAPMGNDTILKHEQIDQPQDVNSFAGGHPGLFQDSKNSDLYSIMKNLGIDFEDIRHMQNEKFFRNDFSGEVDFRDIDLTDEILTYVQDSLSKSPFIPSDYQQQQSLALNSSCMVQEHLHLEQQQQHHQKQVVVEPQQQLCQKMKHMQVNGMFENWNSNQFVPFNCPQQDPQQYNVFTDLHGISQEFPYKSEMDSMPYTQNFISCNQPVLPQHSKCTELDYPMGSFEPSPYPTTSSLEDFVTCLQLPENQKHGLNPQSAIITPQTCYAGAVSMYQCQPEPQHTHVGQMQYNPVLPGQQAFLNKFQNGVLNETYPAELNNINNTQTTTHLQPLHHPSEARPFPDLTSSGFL
Briefly: In vitro assay 1: antagonism in human cell line (transactivation assay, kynurenic acid prestimulated). To be noted: Assay 1: AHR-luc Hum Antagonism IC50 [M], 150 μM kynurenic acid, 20 hours, firefly luciferase.
Protocol: Transactivation assays were carried out in U87 glioblastoma cells (ATCC) endogenously expressing AHR. In addition the cells were stably transfected with an AHR inducible firefly luciferase reporter gene construct that carried AHR-binding sites (DRE) in its promoter and a renilla reporter gene construct with constitutively active promoter. Kynurenic acid is an endogenous AHR activating ligand and was used to prestimulate test cells prior to testing the antagonistic properties of compounds.
In Vitro Assay 1: Antagonism in Human Cell Line
Cells in medium (tryptophan free RPMI, 1% FCS, 2 mM Glutamine) supplemented with 150 μM kynurenic acid were grown for 20 hours in absence (negative control) or presence of increasing concentrations of test compounds (typical dilutions: 72 pmol/L, 0.25 nmol/L, 0.89 nmol/L; 3.1 nmol/L, 11 nmol/L, 38 nmol/L, 130 nmol/L, 470 nmol/L, 1.6 μmol/L, 5.7 μmol/L and 20 μmol/L in duplicates). As positive inhibition control cells supplemented with 150 μM kynurenic acid were incubated in presence of 5 μM Staurosporin. Normalization was done by positive and negative controls.
Firefly luciferase and Renilla activity was determined by the DualGlo Luciferase Assay System (Promega, #2920).
In the case of `CC(NC(=O)c1cc(-c2ccc(C(F)(F)F)cc2)nn(-c2cccc(F)c2)c1=O)C(O)C(F)(F)F` (single isomer, unassigned) [Example 268, Isomer no. 1 of 2-(3-fluorophenyl)-3-oxo-N-(4,4,4-trifluoro-3-hydroxybutan-2-yl)-6-[4-(trifluoromethyl)phenyl]-2,3-dihydropyridazine-4-carboxamide], the IC50 (in general, the concentration at which inhibition is half-maximal) was greater than 2e-05 M.
The result for `O=C(NC(CO)C1CCCO1)c1cc(-c2ccc(Cl)cc2)nn(-c2cccc(F)c2)c1=O` (single isomer, unassigned) [Example 317, 1,4-anhydro-5-({[6-(4-chlorophenyl)-2-(3-fluorophenyl)-3-oxo-2,3-dihydropyridazin-4-yl]carbonyl}amino)-2,3,5-trideoxyhexitol] reads 1.77e-07 M; that for `O=C(NC(CO)C1CCCO1)c1cc(-c2ccc(Cl)cc2)nn(-c2cccc(F)c2)c1=O` (single isomer, unassigned) [Example 318, 1,4-anhydro-5-({[6-(4-chlorophenyl)-2-(3-fluorophenyl)-3-oxo-2,3-dihydropyridazin-4-yl]carbonyl}amino)-2,3,5-trideoxyhexitol], 5.34e-08 M.
The result for `O=C(NC(CO)C1CCCO1)c1cc(-c2ccc(Cl)cc2)nn(-c2cccc(F)c2)c1=O` (single isomer, unassigned) [Example 319, 1,4-anhydro-5-({[6-(4-chlorophenyl)-2-(3-fluorophenyl)-3-oxo-2,3-dihydropyridazin-4-yl]carbonyl}amino)-2,3,5-trideoxyhexitol] reads 5.02e-08 M; that for `O=C(NC(CO)C1CCCO1)c1cc(-c2ccc(C(F)(F)F)cc2)nn(-c2cccc(F)c2)c1=O` (single isomer, unassigned) [Example 353, 1,4-anhydro-2,3,5-trideoxy-5-[({2-(3-fluorophenyl)-3-oxo-6-[4-(trifluoromethyl)phenyl]-2,3-dihydropyridazin-4-yl}carbonyl)amino]hexitol], 2e-08 M; that for `O=C(NC(CO)C1CCCO1)c1cc(-c2ccc(C(F)(F)F)cc2)nn(-c2cccc(F)c2)c1=O` (single isomer, unassigned) [Example 354, 1,4-anhydro-2,3,5-trideoxy-5-[({2-(3-fluorophenyl)-3-oxo-6-[4-(trifluoromethyl)phenyl]-2,3-dihydropyridazin-4-yl}carbonyl)amino]hexitol], 1.41e-08 M.
As to `O=C(NC(CO)C1CCCO1)c1cc(-c2ccc(C(F)(F)F)cc2)nn(-c2cccc(F)c2)c1=O` (single isomer, unassigned) [Example 355, 1,4-anhydro-2,3,5-trideoxy-5-[({2-(3-fluorophenyl)-3-oxo-6-[4-(trifluoromethyl)phenyl]-2,3-dihydropyridazin-4-yl}carbonyl)amino]hexitol], inhibition was half-maximal at 1.2e-07 M (IC50).
In turn, `COCCC(CO)NC(=O)c1cc(-c2ccc(C(F)(F)F)cc2)nn(-c2cccc(F)c2)c1=O` (single isomer, unassigned; (+)) [Example 332, (+)-2-(3-fluorophenyl)-N-(1-hydroxy-4-methoxybutan-2-yl)-3-oxo-6-[4-(trifluoromethyl)phenyl]-2,3-dihydropyridazine-4-carboxamide] displayed an IC50 of 6.06e-08 M.
The result for `Cc1ccc(-c2cc(C(=O)N[C@H](C)CO)c(=O)n(-c3cccc(F)c3)n2)cc1` [Example 9, 2-(3-Fluorophenyl)-N-[(2R)-1-hydroxypropan-2-yl]-6-(4-methylphenyl)-3-oxo-2,3-dihydropyridazine-4-carboxamide] reads 1.81e-07 M; that for `Cc1ccc(-c2cc(C(=O)NCCO)c(=O)n(-c3cccc(F)c3)n2)cc1` [Example 19, 2-(3-Fluorophenyl)-N-(2-hydroxyethyl)-6-(4-methylphenyl)-3-oxo-2,3-dihydropyridazine-4-carboxamide], 3.91e-07 M; that for `CC(CO)NC(=O)c1cc(-c2ccc(Cl)cc2)nn(-c2cccc(F)c2)c1=O` (stereo not drawn) [Example 22, 6-(4-Chlorophenyl)-2-(3-fluorophenyl)-N-(1-hydroxypropan-2-yl)-3-oxo-2,3-dihydropyridazine-4-carboxamide], 8.39e-08 M.
The result for `CC(C)[C@@H](CO)NC(=O)c1cc(-c2ccc(Cl)cc2)nn(-c2cccc(Cl)c2)c1=O` [Example 59, 2-(3-Chlorophenyl)-6-(4-chlorophenyl)-N-[(2S)-1-hydroxy-3-methylbutan-2-yl]-3-oxo-2,3-dihydropyridazine-4-carboxamide] reads 4.96e-08 M; that for `CC[C@@H](CO)NC(=O)c1cc(-c2ccc(Cl)cc2)nn(-c2cccc(Cl)c2)c1=O` [Example 60, 2-(3-Chlorophenyl)-6-(4-chlorophenyl)-N-[(2S)-1-hydroxybutan-2-yl]-3-oxo-2,3-dihydropyridazine-4-carboxamide], 6.6e-08 M.
In the case of `CC(C)C[C@@H](CO)NC(=O)c1cc(-c2ccc(Cl)cc2)nn(-c2cccc(Cl)c2)c1=O` [Example 61, 2-(3-Chlorophenyl)-6-(4-chlorophenyl)-N-[(2S)-1-hydroxy-4-methylpentan-2-yl]-3-oxo-2,3-dihydropyridazine-4-carboxamide], it took 5.14e-07 M to reach half-maximal inhibition (IC50).
On to `O=C(NCC(O)C(F)(F)F)c1cc(-c2ccc(Cl)cc2)nn(-c2cccc(Cl)c2)c1=O` (stereo not drawn) [Example 62, 2-(3-Chlorophenyl)-6-(4-chlorophenyl)-3-oxo-N-(3,3,3-trifluoro-2-hydroxypropyl)-2,3-dihydropyridazine-4-carboxamide], for which the IC50 was determined as 1.5e-07 M.
The result for `CC(CO)NC(=O)c1cc(-c2ccc(Cl)cc2)nn(-c2cccc(Cl)c2)c1=O` (stereo not drawn) [Example 65, 2-(3-Chlorophenyl)-6-(4-chlorophenyl)-N-(1-hydroxypropan-2-yl)-3-oxo-2,3-dihydropyridazine-4-carboxamide] reads 3e-07 M; that for `CC(C)C(O)CNC(=O)c1cc(-c2ccc(Cl)cc2)nn(-c2cccc(Cl)c2)c1=O` (stereo not drawn) [Example 67, 2-(3-Chlorophenyl)-6-(4-chlorophenyl)-N-(2-hydroxy-3-methylbutyl)-3-oxo-2,3-dihydropyridazine-4-carboxamide], 3.89e-07 M.
The result for `Cc1ccc(-c2cc(C(=O)N[C@H](CO)C(C)C)c(=O)n(-c3ccccc3)n2)cc1` [Example 71, N-[(2S)-1-hydroxy-3-methylbutan-2-yl]-6-(4-methylphenyl)-3-oxo-2-phenyl-2,3-dihydropyridazine-4-carboxamide] reads 4.05e-08 M; that for `Cc1ccc(-c2cc(C(=O)N[C@@H](CO)C(C)C)c(=O)n(-c3ccccc3)n2)cc1` [Example 72, N-[(2R)-1-hydroxy-3-methylbutan-2-yl]-6-(4-methylphenyl)-3-oxo-2-phenyl-2,3-dihydropyridazine-4-carboxamide], 2.11e-06 M; that for `Cc1ccc(-c2cc(C(=O)NC(C)CO)c(=O)n(-c3ccccc3)n2)cc1` (stereo not drawn) [Example 73, N-(1-hydroxypropan-2-yl)-6-(4-methylphenyl)-3-oxo-2-phenyl-2,3-dihydropyridazine-4-carboxamide], 3.07e-07 M.
In the case of `Cc1ccc(-c2cc(C(=O)NCCO)c(=O)n(-c3ccccc3)n2)cc1` [Example 74, N-(2-hydroxyethyl)-6-(4-methylphenyl)-3-oxo-2-phenyl-2,3-dihydropyridazine-4-carboxamide], the IC50 worked out at 2.1e-06 M.
The result for `CC(CO)NC(=O)c1cc(-c2ccc(Cl)cc2)nn(-c2ccccc2)c1=O` (stereo not drawn) [Example 79, 6-(4-chlorophenyl)-N-(1-hydroxypropan-2-yl)-3-oxo-2-phenyl-2,3-dihydropyridazine-4-carboxamide] reads 2.82e-07 M; that for `C[C@H](CO)NC(=O)c1cc(-c2ccc(Cl)cc2)nn(-c2ccccc2)c1=O` [Example 81, 6-(4-chlorophenyl)-N-[(2R)-1-hydroxypropan-2-yl]-3-oxo-2-phenyl-2,3-dihydropyridazine-4-carboxamide], 1.12e-06 M; that for `Cc1ccc(-c2cc(C(=O)NC(CO)C(C)C)c(=O)n(-c3cccc(F)c3)n2)cc1C` (stereo not drawn) [Example 82, 6-(3,4-dimethylphenyl)-2-(3-fluorophenyl)-N-(1-hydroxy-3-methylbutan-2-yl)-3-oxo-2,3-dihydropyridazine-4-carboxamide], 1.03e-07 M.
Regarding `Cc1ccc(-c2cc(C(=O)N[C@@H](CO)C(C)C)c(=O)n(-c3cccc(F)c3)n2)cc1C` [Example 84, 6-(3,4-dimethylphenyl)-2-(3-fluorophenyl)-N-[(2R)-1-hydroxy-3-methylbutan-2-yl]-3oxo-2,3-dihydropyridazine-4-carboxamide], the IC50 was determined as 3.66e-06 M.
On to `CCC(CO)NC(=O)c1cc(-c2ccc(C)c(C)c2)nn(-c2cccc(F)c2)c1=O` (stereo not drawn) [Example 85, 6-(3,4-dimethylphenyl)-2-(3-fluorophenyl)-N-(1-hydroxybutan-2-yl)-3-oxo-2,3-dihydropyridazine-4-carboxamide], for which the half-maximal inhibitory concentration (IC50) is 8.61e-08 M.
With `CC[C@H](CO)NC(=O)c1cc(-c2ccc(C)c(C)c2)nn(-c2cccc(F)c2)c1=O` [Example 87, 6-(3,4-dimethylphenyl)-2-(3-fluorophenyl)-N-[(2R)-1-hydroxybutan-2-yl]-3-oxo-2,3-dihydropyridazine-4-carboxamide], the IC50 was 7.26e-07 M.

The record behind these values is US11040035B2, “3-oxo-2,6-diphenyl-2,3-dihydropyridazine-4-carboxamides” (BAYER PHARMA AKTIENGESELLSCHAFT, priority 2016, dated 2021).
